# Measured values from the supplement of paper PMC10331698.
# ± gives the standard deviation of the averaged measurements.
# How the values were obtained:
# Assay in all cases: level (log10 ratio to DMSO vehicle control); higher = higher biomarker level / cell amount than vehicle control
# Details in all cases: in DMSO
# [1] = compound: O=S(=O)(O)C(F)(F)C(F)(F)C(F)(F)C(F)(F)C(F)(F)C(F)(F)F [Perfluorohexanesulfonic acid]
# Description: (§1)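 BioMAP Diversity Plus panel of 12 human primary cell co-culture systems (3C, 4H, LPS, SAg, BT, BF4T, BE3C, CASM3C, HDF3CGF, KF3CT, MyoF, Mphg). Compounds were added 1 h before stimulation and left for 24 h (MyoF 48 h; BT 72 h for soluble read-outs or 6 d for IgG). Biomarkers were read by ELISA, cytotoxicity by SRB, PBMC viability and proliferation by Alamar Blue. Each well value was divided by the mean of 8 DMSO control wells on the same plate and log10 transformed; duplicate blinded samples were tested at 4 concentrations.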
# [2] = compound: OCCC(F)(F)C(F)(F)C(F)(F)C(F)(F)C(F)(F)C(F)(F)F [6:2 Fluorotelomer alcohol]
# Description: as §1
# [3] = compound: O=C(O)C(F)(F)OC(F)(F)C(F)(F)OC(F)(F)F [Perfluoro-3,6-dioxaheptanoic acid]
# Description: as §1
# [4] = compound: C=CC(=O)OCC(F)(F)C(F)(F)C(F)(F)C(F)(F)C(F)(F)C(F)(F)C(F)(F)F [1H,1H-Perfluorooctyl acrylate]
# Description: as §1
# [5] = compound: O=C(O)C(F)(F)C(F)(F)C(F)(F)OC(F)(C(F)(F)F)C(F)(F)F [Perfluoro-4-isopropoxybutanoic acid]
# Description: as §1
# [6] = compound: NCC(F)(F)C(F)(F)C(F)(F)C(F)(F)C(F)(F)C(F)(F)C(F)(F)F [1H,1H-Perfluorooctylamine]
# Description: as §1
# [7] = compound: O=C(O)C(F)(F)C(F)(F)OC(F)(F)F [Perfluoro-3-methoxypropanoic acid]
# Description: as §1
Test System,level (log10) ([1]; 6700 nM),level (log10) ([1]; 20000 nM),level (log10) ([1]; 60000 nM),level (log10) ([2]; 6700 nM),level (log10) ([2]; 20000 nM),level (log10) ([3]; 6700 nM),level (log10) ([3]; 20000 nM),level (log10) ([3]; 60000 nM),level (log10) ([4]; 6700 nM),level (log10) ([4]; 20000 nM),level (log10) ([4]; 60000 nM),level (log10) ([5]; 6700 nM),level (log10) ([5]; 20000 nM),level (log10) ([5]; 60000 nM),level (log10) ([6]; 6700 nM),level (log10) ([6]; 20000 nM),level (log10) ([6]; 60000 nM),level (log10) ([7]; 6700 nM),level (log10) ([7]; 20000 nM),level (log10) ([7]; 60000 nM)
BE3C:CXCL10/IP-10,-0.0035 ± 0.00071,-0.01 ± 0.0071,-0.0405 ± 0.016,-0.0035 ± 0.005,0.006 ± 0.0028,-0.03 ± 0.016,-0.0115 ± 0.018,-0.0095 ± 0.0078,0.0315 ± 0.015,0.0195 ± 0.005,0.0235 ± 0.023,0.003 ± 0.0014,0.0135 ± 0.00071,0.0155 ± 0.015,0.004 ± 0.0014,-0.0025 ± 0.0035,0.002 ± 0.0085,0.0025 ± 0.005,-0.0095 ± 0.0035,0.0025 ± 0.011
SAg:CCL2/MCP-1,0.015 ± 0.0071,0.0095 ± 0.018,0.017,-0.0165 ± 0.0035,-0.0115 ± 0.00071,0.0125 ± 0.032,0.002 ± 0.035,-0.0025 ± 0.033,-0.014 ± 0.0071,-0.025 ± 0.0071,0.001 ± 0.024,-0.007 ± 0.021,0.006 ± 0.016,0.039 ± 0.02,-0.0255 ± 0.012,-0.0145 ± 0.0064,-0.0035 ± 0.025,-0.007 ± 0.013,-0.0075 ± 0.0092,-0.0035 ± 0.0078
BE3C:IL-1alpha,0.0145 ± 0.042,0.02 ± 0.018,0.0545 ± 0.0021,0.019 ± 0.016,0.008 ± 0.0057,-0.035 ± 0.04,-0.0345 ± 0.032,-0.0385 ± 0.046,-0.006 ± 0.018,-0.0095 ± 0.0035,-0.0105 ± 0.019,0.0065 ± 0.026,0.016 ± 0.02,0.0325 ± 0.00071,-0.002 ± 0.0028,-0.0285 ± 0.016,-0.01 ± 0.0014,0.0105 ± 0.015,0.0235 ± 0.005,0.0355 ± 0.026
LPS:IL-1alpha,-0.001 ± 0.0085,0.0075 ± 0.029,0.0365 ± 0.026,0 ± 0.045,-0.011 ± 0.016,-0.0605 ± 0.0035,-0.0075 ± 0.0064,-0.0055 ± 0.036,0.0165 ± 0.018,0.033 ± 0.023,0.042 ± 0.025,-0.043 ± 0.0071,-0.0015 ± 0.013,0.0205 ± 0.064,-0.04 ± 0.038,0.0105 ± 0.022,-0.0025 ± 0.03,-0.025 ± 0.0071,-0.0285 ± 0.0078,0.0005 ± 0.0021
BT:sTNF-alpha,0.024 ± 0.13,-0.011 ± 0.034,-0.0495 ± 0.044,0.071 ± 0.028,-0.0445 ± 0.015,0.0935 ± 0.056,0.0375 ± 0.17,0.0755 ± 0.036,-0.029 ± 0.027,-0.0585 ± 0.044,-0.19 ± 0.043,-0.0005 ± 0.076,0.026 ± 0.083,0.085 ± 0.078,0.0435 ± 0.1,0.057 ± 0.023,-0.0375 ± 0.076,0.055 ± 0.035,-0.0805 ± 0.084,0.0205 ± 0.17
BT:PBMC Cytotoxicity,0.0015 ± 0.016,0.0325 ± 0.0035,0.061 ± 0.0057,-0.0185 ± 0.026,-0.035 ± 0.0071,-0.011 ± 0.0099,0 ± 0.017,0.0015 ± 0.071,-0.032 ± 0.071,-0.0405 ± 0.056,-0.092 ± 0.068,0.02 ± 0.0028,-0.0165 ± 0.0021,0.056 ± 0.016,-0.0095 ± 0.005,-0.0065 ± 0.005,-0.0045 ± 0.036,-0.0195 ± 0.061,-0.0215 ± 0.019,-0.0005 ± 0.029
4H:CD106/VCAM-1,-0.013 ± 0.0042,-0.023 ± 0.0042,-0.012 ± 0.014,0 ± 0.0057,-0.002 ± 0.0057,-0.0245 ± 0.0092,0.001 ± 0.034,-0.0215 ± 0.021,0.0165 ± 0.036,0.032 ± 0.023,0.0225 ± 0.059,0.0075 ± 0.011,-0.019 ± 0.0028,-0.011 ± 0.025,0 ± 0.023,-0.041 ± 0.027,-0.034 ± 0.0085,0.0005 ± 0.016,-0.005 ± 0.0085,0.007 ± 0.0057
